Data: patent US20240002375A1, “2-(INDAZOL-5-YL)-6-(PIPERIDIN-4-YL)-1,7-NAPHTHYRIDINE DERIVATIVES AND RELATED COMPOUNDS AS MODULATORS FOR SPLICING NUCLEIC ACIDS AND FOR THE TRE” (REMIX THERAPEUTICS INC., priority 2020, published 2024)

Key:
Format in all cases: cell-based
HTT CJ mRNA = assay: Gene panel canonical junction qPCR splicing assay, HTT; settings: Table 4, read-out: HTT IC50 (decrease in CJ mRNA levels)
Method in brief: (§1)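 A673 or K562 cells treated with compound; canonical-junction mRNA measured by RT-qPCR with junction-spanning primer/probe sets, normalized to GAPDH, GUSB or PPIA and DMSO (2^−ΔΔCt). IC50 for CJ decrease from 4-parameter logistic fit of percentage response.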

SMN2 CJ mRNA = assay: Gene panel canonical junction qPCR splicing assay, SMN2; settings: Table 4, read-out: SMN2 IC50 (decrease in CJ mRNA levels)
Method in brief: as §1

HTT mRNA = assay: Splicing assay (RT-qPCR) of HTT mRNA alternative junction (AJ) and canonical junction (CJ); settings: A673 or K562 cells, 24 hours; for IC50: decrease in CJ mRNA, read-out: HTT CJ IC50; for AC50: increase in AJ mRNA, read-out: HTT AJ AC50
Method in brief: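 A673 (adherent, 24 h pre-plating) or K562 cells treated 24 h at 37 °C with an 11-point 3-fold dilution series, top 10 uM, DMSO ≤0.25%. Lysates analysed by one-step RT-qPCR for HTT canonical (CJ) and alternative-exon (AJ) junctions, normalised to PPIA (A673) or GAPDH/GUSB (K562).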

Target C CJ mRNA = assay: Gene panel canonical junction qPCR splicing assay, Target C; settings: Table 4, read-out: Target C IC50 (decrease in CJ mRNA levels)
Method in brief: as §1

Row | Compound | IC50 (HTT CJ mRNA) [nM] | IC50 (SMN2 CJ mRNA) [nM] | IC50 (HTT mRNA) [nM] | AC50 (HTT mRNA) [nM] | IC50 (Target C CJ mRNA) [nM]
1 | Cn1cc2cc(-c3ccc4c(F)c(C5CCNCC5)ccc4n3)c(O)cc2n1 [Compound 115, 5-[5-fluoro-6-(piperidin-4-yl)quinolin-2-yl]-2-methylindazol-6-ol] | 1000 to 10000 | < 100 | 1000 to 10000 | 1000 to 10000 | 1000 to 10000
2 | CN1CCN(c2ccc3nc(-c4cc5cn(C)nc5cc4O)ccc3n2)CC1 [Compound 116, 2-methyl-5-[6-(4-methylpiperazin-1-yl)-1,5-naphthyridin-2-yl]indazol-6-ol] | 1000 to 10000 | < 100 | 1000 to 10000 | 1000 to 10000 | 1000 to 10000
3 | CC1CN(c2ccc3nc(-c4cc5cn(C)nc5cc4O)ccc3n2)CCN1 (centres unmarked) [Compound 117, 2-methyl-5-[6-(3-methylpiperazin-1-yl)-1,5-naphthyridin-2-yl]indazol-6-ol] | 1000 to 10000 | < 100 | 1000 to 10000 | 1000 to 10000 | 1000 to 10000
4 | CC1CN(c2ccc3nc(-c4cc5cn(C)nc5cc4O)ccc3n2)CCN1C (centres unmarked) [Compound 118, 5-[6-(3,4-dimethylpiperazin-1-yl)-1,5-naphthyridin-2-yl]-2-methylindazol-6-ol] | 1000 to 10000 | < 100 | 1000 to 10000 | 1000 to 10000 | 1000 to 10000
5 | CCC1CN(c2ccc3nc(-c4cc5cn(C)nc5cc4O)ccc3n2)CCN1 (centres unmarked) [Compound 119, 5-[6-(3-ethylpiperazin-1-yl)-1,5-naphthyridin-2-yl]-2-methylindazol-6-ol] | 100 to 1000 | < 100 | 100 to 1000 | 1000 to 10000 | 1000 to 10000
6 | Cn1cc2cc(-c3ccc4nc(N5CCNC(C)(C)C5)ccc4n3)c(O)cc2n1 [Compound 120, 5-[6-(3,3-dimethylpiperazin-1-yl)-1,5-naphthyridin-2-yl]-2-methylindazol-6-ol] | 1000 to 10000 | < 100 | 1000 to 10000 | 1000 to 10000 | 1000 to 10000
7 | Cn1cc2cc(-c3ccc4nc(N5CCNC6(CC6)C5)ccc4n3)c(O)cc2n1 [Compound 121, 5-(6-[4,7-diazaspiro[2.5]octan-7-yl]-1,5-naphthyridin-2-yl)-2-methylindazol-6-ol] | 1000 to 10000 | 1000 to 10000 | 1000 to 10000 | 1000 to 10000 | 1000 to 10000
8 | Cn1cc2cc(-c3ccc4nc(N5CC(C)(C)NC(C)(C)C5)ccc4n3)c(O)cc2n1 [Compound 122, 2-methyl-5-[6-(3,3,5,5-tetramethylpiperazin-1-yl)-1,5-naphthyridin-2-yl]indazol-6-ol] | 1000 to 10000 | > 10000 | > 10000 | > 10000 | > 10000
9 | CN1CC2(C1)CN(c1ccc3nc(-c4cc5cn(C)nc5cc4O)ccc3n1)C2 [Compound 123, 2-methyl-5-(6-[6-methyl-2,6-diazaspiro[3.3]heptan-2-yl]-1,5-naphthyridin-2-yl) indazol-6-ol] | 100 to 1000 | < 100 | < 100 | 100 to 1000 | < 100
10 | Cn1cc2cc(-c3ccc4nc(N5CC6(CNC6)C5)ccc4n3)c(O)cc2n1 [Compound 124, 5-(6-[2,6-diazaspiro[3.3]heptan-2-yl]-1,5-naphthyridin-2-yl)-2-methylindazol-6-ol] | < 100 | < 100 | < 100 | 100 to 1000 | 100 to 1000
11 | Cn1cc2cc(-c3ccc4nc(N5CCC(N6CCCC6)C5)ccc4n3)c(O)cc2n1 (centres unmarked) [Compound 125, 5-(6-[[1,3 m ? bipyrrolidin]-1 ? yl]-1,5-naphthyridin-2-yl)-2-methylindazol-6-ol] | 100 to 1000 | < 100 | 100 to 1000 | 100 to 1000 | 100 to 1000
12 | CN1CCC(N(C)c2ccc3nc(-c4cc5cn(C)nc5cc4O)ccc3n2)CC1 [Compound 126] | 100 to 1000 | < 100 | 100 to 1000 | 100 to 1000 | < 100
13 | Cn1cc2cc(-c3ccc4nc(N5CCC(NC(C)(C)C)C5)ccc4n3)c(O)cc2n1 (centres unmarked) [Compound 127, 5-[6-[3-(tert-butylamino)pyrrolidin-1-yl]-1,5-naphthyridin-2-yl]-2-methylindazol-6-ol] | < 100 | < 100 | < 100 | < 100 | < 100
14 | CN(C)C1CCN(c2ccc3nc(-c4cc5cn(C)nc5cc4O)ccc3n2)C1 (centres unmarked) [Compound 129, 5-[6-[3-(dimethylamino)pyrrolidin-1-yl]-1,5-naphthyridin-2-yl]-2-methylindazol-6-ol] | 100 to 1000 | < 100 | 100 to 1000 | 100 to 1000 | 100 to 1000
15 | CN(c1ccc2nc(-c3cc4cn(C)nc4cc3O)ccc2n1)C1CC(C)(C)NC(C)(C)C1 [Compound 130] | > 10000 | 100 to 1000 | > 10000 | > 10000 | > 10000
16 | CCNC1CCN(c2ccc3nc(-c4cc5cn(C)nc5cc4O)ccc3n2)CC1 [Compound 131, 5-[6-[4-(ethylamino)piperidin-1-yl]-1,5-naphthyridin-2-yl]-2-methylindazol-6-ol] | 1000 to 10000 | < 100 | 1000 to 10000 | > 10000 | > 10000
17 | Cn1cc2cc(-c3ccc4nc(N5CCC(NC(C)(C)C)CC5)ccc4n3)c(O)cc2n1 [Compound 132, 5-[6-[4-(tert-butylamino)piperidin-1-yl]-1,5-naphthyridin-2-yl]-2-methylindazol-6-ol] | > 10000 | > 10000 | > 10000 | > 10000 | > 10000
18 | CN(C)C1CCN(c2ccc3nc(-c4cc5cn(C)nc5cc4O)ccc3n2)CC1 [Compound 133, 5-[6-[4-(dimethylamino)piperidin-1-yl]-1,5-naphthyridin-2-yl]-2-methylindazol-6-ol] | 1000 to 10000 | < 100 | 1000 to 10000 | 1000 to 10000 | 1000 to 10000
19 | Cn1cc2cc(-c3ccc4nc(N5CCN6CCCC6C5)ccc4n3)c(O)cc2n1 (centres unmarked) [Compound 134, 5-(6-[hexahydro-1H-pyrrolo[1,2-a]pyrazin-2-yl]-1,5-naphthyridin-2-yl)-2-methylindazol-6-ol] | 1000 to 10000 | < 100 | 1000 to 10000 | 1000 to 10000 | 1000 to 10000
20 | Cn1cc2cc(-c3ccc4nc(N5C[C@H]6CC[C@@H](C5)N6)ccc4n3)c(O)cc2n1 [Compound 135, 5-[6 [(1R,5 S)-3,8-diazabicyclo[3.2.1]octan-3-yl]-1,5-naphthyridin-2-yl]-2-methylindazol-6-01] | 1000 to 10000 | < 100 | 1000 to 10000 | 1000 to 10000 | 1000 to 10000
21 | Cn1cc2cc(-c3ccc4nc(N5CCNCC5)ccc4n3)c(O)cc2n1 [Compound 136] | 1000 to 10000 | < 100 | 1000 to 10000 | 1000 to 10000 | 100 to 1000
22 | C[C@@H]1CC(c2ccc3nc(-c4cc5cn(C)nc5cc4O)ccc3n2)C[C@H](C)N1 (stereo partly drawn) [Compound 137, 5-[6-[(2R,6S)-2,6-dimethylpiperidin-4-yl]-1,5-naphthyridin-2-yl]-2-methylindazol-6-ol] | 100 to 1000 | < 100 | 100 to 1000 | 100 to 1000 | 1000 to 10000
